From publication PMC8941652 (European journal of medicinal chemistry, 2022)
In brackets after ≈: the same amount, converted by molar mass.

Columns and labels:
[1] = tested on: Extensively drug resistant Mtb strains; test: microbe, parasite or virus in culture; format: cell-based; conditions: for MIC: Mycobacterium tuberculosis
[2] = tested on: PAS resistant Mtb: FolC mutants; format: cell-based, Mycobacterium tuberculosis
[3] = tested on: Multidrug resistant Mtb strains; test: microbe, parasite or virus in culture; format: cell-based; conditions: Mycobacterium tuberculosis

SMILES	MIC [1]	MIC [2]	MIC [3]	activity against XDR and PAS resistant strains ([1]; most XDR and PAS resistant strains)
NNC(=O)c1ccncc1 [Isoniazid]	6.3 to 50 µM (≈ 0.864 to 6.86 µg/mL)	0.3 to 0.4 µM	0.4 to 19 µM (≈ 0.0549 to 2.61 µg/mL)	
CC(=O)NC[C@H]1CN(c2ccc(N3CCOCC3)c(F)c2)C(=O)O1 [Linezolid]	0.9 to 50 µM (≈ 0.304 to 16.9 µg/mL)		0.8 to 1.4 µM (≈ 0.27 to 0.472 µg/mL)	
Nc1cc(O)c(C(=O)O)cc1F [Compound 11, 4-Amino-5-fluoro-2-hydroxybenzoic acid]		≥50 µM	6.3 to 50 µM (≈ 1.08 to 8.56 µg/mL)	largely inactive
Nc1ccc(C(=O)O)c(O)c1 [PAS, para-Aminosalicylic acid]		12.5 to 50 µM	0.2 to 3.1 µM (≈ 0.0306 to 0.475 µg/mL)	
